Measurements: patent US12091399B2, “Phenyltetrazole derivatives as plasma kallikrein inhibitors” (Boehringer Ingelheim International GmbH, priority 2018, dated 2024)
Each block holds one compound with its values, some of them ahead of it. Square brackets hold non-standard residues; d marks the D form. Peptide text beside a SMILES is read from it. * marks the point of attachment. pNA = O=[N+]([O-])c1ccc(N*)cc1; Cbz = O=C(OCc1ccccc1)*

Experiments:
Assay type in all cases: biochemical
Human FIIa = Human FIIa (Homo sapiens (Human), UniProt P00734); experiment: Inhibition of FIIa (Ki); conditions: substrate KM, enzyme FIIa
Experimental: (§1) The ability of compounds of formula (I) to inhibit plasma kallikrein (PKK), Factor XIIa (FXIIa), Factor XIa (FXIa), Factor Xa (FXa), Factor IIa (alpha-thrombin; FIIa), plasmin, trypsin, tissue kallikrein 1 (TK1), Factor Vila (FVIIa), or FVIIa complexed with Tissue Factor, phospholipids and CaCl2) (FVIIa/TF/PL/CaCl2) was determined using the following biochemical assays in assay buffer (100 mM Tris, 150 mM NaCL, adjusted to a pH of 7.8 with HCl, and containing 0.1% (w/v) BSA and 0.05% (v/v) Tween20) in the presence of 1% (v/v) DMSO:
(§2) Human FIIa (44.6 nM or 5 U/mL; Enzyme Research Laboratories) was incubated at 24° C. with 0.5 mM chromogenic Substrate S2238 (Chromogenix) and various concentrations of the test compound in assay buffer. Measurements were performed in a kinetic interval every 2nd minute for 16 min using a Spectramax M5 (Molecular Devices) measuring the optical absorbance at 405 nm.
(§3) The pIC50 values were then fitted using a four-parametric fitting procedure using GraphPad Prism (version 6; GraphPad Software, Inc.). Respective Ki values were obtained by correction of the IC50 values for the respective KM value of the used substrate (see Table A for the obtained KM values of the used substrates) using the following formula: […]

Human FXa = Human FXa (Homo sapiens (Human), UniProt P00742); experiment: Inhibition of FXa (Ki); conditions: substrate KM, enzyme FXa
Sequence of Human FXa (P00742 235-488): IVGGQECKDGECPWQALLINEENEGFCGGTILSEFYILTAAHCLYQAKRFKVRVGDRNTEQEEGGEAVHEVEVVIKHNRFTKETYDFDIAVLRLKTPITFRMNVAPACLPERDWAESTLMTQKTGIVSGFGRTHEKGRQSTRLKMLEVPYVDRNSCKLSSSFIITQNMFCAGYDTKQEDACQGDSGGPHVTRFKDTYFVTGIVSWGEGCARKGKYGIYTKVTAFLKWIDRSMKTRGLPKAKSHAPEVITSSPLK
Sequence of Human FXa (P00742 41-179 partner): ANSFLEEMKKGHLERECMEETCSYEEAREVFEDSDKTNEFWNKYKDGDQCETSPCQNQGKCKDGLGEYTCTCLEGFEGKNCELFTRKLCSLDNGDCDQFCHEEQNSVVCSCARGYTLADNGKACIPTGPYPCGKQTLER
Experimental: as §1
as §2, with “Human FXa (0.86” for “Human FIIa (44.6”, “or 0.01” for “or 5”, “Substrate S2765” for “Substrate S2238”
as §3

Human FXIIa = Human FXIIa (Homo sapiens (Human), UniProt P00748); experiment: Inhibition of FXIIa (Ki); conditions: substrate KM, enzyme FXIIa
Sequence of Human FXIIa (P00748 373-615): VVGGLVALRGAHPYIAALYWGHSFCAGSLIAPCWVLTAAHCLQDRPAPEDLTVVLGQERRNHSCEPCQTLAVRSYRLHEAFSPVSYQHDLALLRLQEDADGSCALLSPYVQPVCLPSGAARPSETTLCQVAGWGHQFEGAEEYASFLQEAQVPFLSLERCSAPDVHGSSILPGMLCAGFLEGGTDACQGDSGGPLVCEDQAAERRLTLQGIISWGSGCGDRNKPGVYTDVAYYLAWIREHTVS
Sequence of Human FXIIa (P00748 20-372 partner): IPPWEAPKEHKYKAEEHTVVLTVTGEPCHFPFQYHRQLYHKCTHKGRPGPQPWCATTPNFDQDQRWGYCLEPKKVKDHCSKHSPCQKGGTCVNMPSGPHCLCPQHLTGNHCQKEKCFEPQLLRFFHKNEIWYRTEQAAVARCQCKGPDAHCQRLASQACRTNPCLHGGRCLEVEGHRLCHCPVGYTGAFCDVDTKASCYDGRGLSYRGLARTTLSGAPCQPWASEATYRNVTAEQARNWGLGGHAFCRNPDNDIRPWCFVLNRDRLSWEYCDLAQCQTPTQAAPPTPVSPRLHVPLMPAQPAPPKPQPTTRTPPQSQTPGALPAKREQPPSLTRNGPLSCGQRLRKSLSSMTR
Experimental: as §1
as §2, with “Human FXIIa (47.5” for “Human FIIa (44.6”, “or 1.1” for “or 5”, “Substrate S2302” for “Substrate S2238”
as §3

- Km (Human FIIa): 1250 µM
Structure (SMILES): NC(N)=NCCC[C@H](NC(=O)[C@@H]1CCCCN1C(=O)[C@H](N)Cc1ccccc1)C(=O)Nc1ccc([N+](=O)[O-])cc1 [Example S2238]

- Km (Human FXa): 1310 µM
Structure (SMILES): NC(N)=NCCC[C@H](NC(=O)CNC(=O)[C@@H](CCCN=C(N)N)NC(=O)OCc1ccccc1)C(=O)Nc1ccc([N+](=O)[O-])cc1 [Example S2765] (Cbz-[dR]-Gly-Arg-pNA)

- Km (Human FXIIa): 200 µM
Structure (SMILES): N=C(N)NCCC[C@H](NC(=O)[C@H](Cc1ccccc1)NC(=O)[C@H]1CCCN1)C(=O)Nc1ccc([N+](=O)[O-])cc1 [Example S2302] (H-[dP]-Phe-Arg-pNA)
